Data reported in patent US10857105B2, “Compounds and compositions for intracellular delivery of therapeutic agents” (ModernaTX, Inc., priority 2017, dated 2020).

Experiments:
luciferase (Luc) mRNA = experiment: Luciferase expression after intramuscular administration to mice; format: in vivo; details: for Novel lipid/MC3 expression ratio, i.m. Luc: 6 hr. time point, relative to MC3 formulation
Procedure, shortened: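 CD-1 mice received lipid nanoparticle formulations of modified luciferase mRNA intramuscularly at 0.01 mpk. Bioluminescence total flux was measured, including at 6 h, and AUC was expressed relative to MC3 formulations. Immunogenicity was assessed in parallel.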

hEPO mRNA = experiment: hEPO expression after intramuscular administration to mice; format: in vivo; details: for Novel lipid/MC3 ratio, i.m. hEPO: Table 3G, intramuscular, 6 hr. timepoint, relative to MC3
Experimental: The numbers 1-11 in this figure correspond to MC3, Compounds 18, 25, 30, 108-112, 60, and 122 respectively.
The expression of hEPO and cytokine induction in mice intravenously administered a nanoparticle composition at a dose of 0.5 mpk were measured at 3, 6, and 24 hours. […] The expression of hEPO in mice intramuscularly administered a nanoparticle composition from Table 1B at a dose of 0.01 mpk were measured at 3, 6, and 24 hours. […] (see

[1] = Particle size and polydispersity index of nanoparticle compositions (Zetasizer Nano ZS); format: physicochemical
Procedure, shortened: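 Formulations of ionizable lipid, DSPC, cholesterol and PEG-DMG (50:10:38.5:1.5 mol %) carrying Luc or hEPO mRNA with all uridines as N1-methyl pseudouridine. Dynamic light scattering in 1×PBS gave particle size and polydispersity; zeta potential read in 15 mM PBS.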

[2] = Encapsulation efficiency of RNA in nanoparticle compositions (RIBOGREEN assay); format: physicochemical; details: for % EE: compositions for subcutaneous administration
Procedure, shortened: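 Lipid nanoparticles (ionisable lipid:DSPC:cholesterol:PEG-DMG 50:10:38.5:1.5 mol %) carrying N1-methylpseudouridine luciferase or hEPO mRNA diluted to about 5 μg/mL in TE, pH 7.5, with or without 2% Triton X-100, 15 min at 37° C. RiboGreen fluorescence (ex ~480, em ~520 nm) blank-subtracted; free RNA = intact/disrupted signal.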

[3] = luciferase, intramuscular administration (Table 3H)
[4] = Table 1A, lipid:DSPC:cholesterol:PEG-DMG 50:10:38.5:1.5 mol %
[5] = Table 1B, formulated with hEPO mRNA
[6] = Table 1C, compositions for subcutaneous administration
[7] = Table 1D, compositions for subcutaneous administration, # formulated with hEPO mRNA
[8] = Table 1E, compositions for subcutaneous administration
[9] = lipid:DSPC:Chol:PEG-DMG (50:10:38.5:1.5), hEPO mRNA
[10] = nanoparticle composition with hEPO mRNA (Table 30)

Row | Size [1, 4] | Size [1, 6] | Size [1, 7] | EE [2, 4] | Compound | Size [1, 5] | EE [2, 5] | Novel lipid/MC3 expression ratio, i.m. Luc (luciferase (Luc) mRNA; intramuscular, luciferase) | other results
1 |  | 76.3 nm | 77.6 nm | 95.80% | CCCCCCCCCCCOC(=O)CCCCCN(CCO)CCCCCCCC(=O)OC(CCCCCCCC)CCCCCCCC [Compound 25, Heptadecan-9-yl 8-((2-hydroxyethyl)(6-oxo-6-(undecyloxy)hexyl)amino)octanoate] | 69.7 nm | 97.92% |  | Novel lipid/MC3 ratio, i.m. hEPO (hEPO mRNA): 7.1
2 | 82.3 nm |  | 79.8 nm | 96.55% | CCCCCCCCC(C)OC(=O)CCCCCCCN(CCO)CCCCCCCC(=O)OC(CCCCCCCC)CCCCCCCC (stereo not drawn) [Compound 48, decan-2-yl 8-((8-(heptadecan-9-yloxy)-8-oxooctyl)(2-hydroxyethyl)amino)octanoate] |  |  | 0.31 | 
3 | 59.4 nm | 81.7 nm | 89.8 nm | 95.69% | CCCCCCCCCOC(=O)CCCCCCCN(CCO)CCCCCCCOC(=O)C(CCCCCCCC)CCCCCCCC [Compound 30, 7-((2-Hydroxyethyl)(8-(nonyloxy)-8-oxooctyl)amino)heptyl 2-octyldecanoate] | 76.3 nm | 96.32% |  | Novel lipid/MC3 ratio, i.m. hEPO (hEPO mRNA): 9.2

The next lines start with the compound.

Row | Compound | Size [1, 4] | Size [1, 6] | Size [1, 7] | EE [2, 4] | Size [1, 5] | EE [2, 5] | Novel lipid/MC3 expression ratio, i.m. Luc (luciferase (Luc) mRNA; intramuscular, luciferase) | other results
4 | CCCCCC=CCC=CCCCCCCCCC(CCCCCCCCC=CCC=CCCCCC)OC(=O)CCCN(C)C (stereo not drawn) [MC3, heptatriaconta-6,9,28,31-tetraen-19-yl 4-(dimethylamino)butanoate, reference compound] | 79.7 nm | 56.9 nm | 69.1 nm | 97.3% | 57.7 nm | 99.01% |  | Total flux 6 hours after intramuscular administration, 0.01 mpk Dose (luciferase (Luc) mRNA; Luc mRNA, intramuscular, 0.01 mpk, 6 hours): 3.23E+07 p/s; AUC (luciferase (Luc) mRNA; [3]): 5.88E+08 p/s*h; Lipid/MC3 AUC (luciferase (Luc) mRNA; [3]): 1; Fold increase in hEPO concentration relative to MC3 (hEPO mRNA; mice, intramuscular 0.01 mpk, 6 hr time point): 1; PDI [1, 4]: 0.11; PDI [1, 5]: 0.12; PDI [1, 6]: 0.09; PDI [1, 7]: 0.15; PDI [1, 8]: 0.10; Size [1, 8]: 62.4 nm; PDI [1, 9]: 0.114; Size [1, 9]: 73.7 nm; PDI [1, 10]: 0.220; Size [1, 10]: 106.0 nm; % EE ([2]; Table 1C): 98.2%; % EE ([2]; Table 1D, # formulated with hEPO mRNA): 98.7%; % EE ([2]; Table 1E): 98%; EE [2, 9]: 97.22%; EE [2, 10]: 91.66%
5 | CCCCCC/C=C\COC(=O)CCCCCCCN(CCO)CCCCCCCC(=O)OC(CCCCCCCC)CCCCCCCC [Compound 24, Heptadecan-9-yl (Z)-8-((2-hydroxyethyl) (8-(non-2-en-1-yloxy)-8-oxooctyl)amino)octanoate] | 99.5 nm | 88.5 nm |  |  |  |  | 1.10 | Novel lipid/MC3 ratio, i.m. Luc (luciferase (Luc) mRNA; Table 3G, intramuscular, luciferase, 6 hr. timepoint, relative to MC3): 1.10
6 | CCCCCCCCCN(CCO)CCCCCCCC(=O)OC(CCCCCCCC)CCCCCCCC [Compound 3, Heptadecan-9-yl 8-((2-hydroxyethyl)(nonyl)amino)octanoate] | 97.5 nm |  |  | 92.25% |  |  |  | 
7 | CCCCCCCCCOC(=O)CCCCCCCN(CCO)CCCCCCCC(=O)OC(CCCCCCCC)CCCCCCCC [Compound 18, Heptadecan-9-yl 8-((2-hydroxyethyl)(8-(nonyloxy)-8-oxooctyl)amino)octanoate] | 87.9 nm |  | 75.0 nm |  | 73.7 nm | 96.95% | 2.01 | 
8 | Nonyl 8-((6-(heptadecan-9-yloxy)-6-oxohexyl)(2-hydroxyethyl)amino) octanoate [Compound 27] | 82.3 nm |  |  | 94.27% |  |  | 3.94 | PDI [1, 4]: 0.18
